US20100130569A1, “PROPHYLACTIC OR THERAPEUTIC AGENT FOR POSTERIOR OCULAR DISEASE COMPRISING NON-ERGOT SELECTIVE D2 RECEPTOR AGONIST AS ACTIVE INGREDIENT” (SATEN PHARMACEUTICAL CO., LTD., priority 2007, published 2010)
Counter-ions that a name gives are not always drawn. Like-named read-outs stand apart in the source and are kept apart here.

Tests used:
[1] = tested on: photoreceptor cell damage caused by light exposure; details: for suppressive effect on photoreceptor cell damage (in words): mouse models of light damage, summary of Table 2; for Suppression rate (%) based on a-wave / Suppression rate (%) based on b-wave: mouse, one hour before light exposure, ERG one day after
Description: After a 0.5% (w/v) tropicamide-0.5% phenylephrine hydrochloride ophthalmic solution was instilled into the eyes of a mouse to cause mydriasis, light damage was induced in the mouse by light exposure (exposure conditions: illuminance level: 5000 Lux, exposure time: 2 hours) with an apparatus for inducing light damage (Sakami Medical Instrument).
Compound A was dissolved in a 1% (w/v) methyl cellulose solution (prepared by dissolving methyl cellulose in purified water) at a concentration of 0.006, 0.02, 0.06 or 0.2 mg/ml, whereby solutions of Compound A were prepared. Each of the solutions of Compound A was orally administered once at a dose of 0.03, 0.1, 0.3 or 1 mg/kg one hour before light exposure. Compound B was also orally administered in the same manner. That is, Compound B was dissolved in a 1% (w/v) methyl cellulose solution at a concentration of 0.02 or 0.2 mg/ml, whereby solutions of Compound B were prepared. Each of the solutions of Compound B was orally administered once at a dose of 0.1 or 1 mg/kg one hour before light exposure. In a vehicle administration group, a 1% (w/v) methyl cellulose solution was administered in the same manner.
One day after light exposure, each mouse was given general anesthesia by intramuscular administration of 2 ml/kg of a mixed solution of a 5% (w/v) ketamine hydrochloride injectable solution, a 2% xylazine hydrochloride injectable solution and physiological saline (7:1:8), and a 0.5% (w/v) tropicamide-0.5% phenylephrine hydrochloride ophthalmic solution was instilled into the eyes to cause mydriasis. Then, the electroretinogram (ERG) was measured using portable ERG & VEP LE-3000 (Tomey Corporation) (measurement conditions: stimulus luminance: 3000 cd/m^2, stimulus duration: 10 msec, background light luminance: 0 cd/m^2), and a- and b-wave amplitudes were calculated from the obtained waveforms. Then, the suppression rate (%) of the drug to be evaluated against the decrease in a- and b-wave amplitudes (photoreceptor cell damage) caused by light exposure was calculated in accordance with Equations 3 and 4. The case number in each administration group was 6 to 8 per group, and the mean value was used for calculating the suppression rate.
Suppression rate against photoreceptor cell damage (%) based on a-wave=(AAZ−AAY)/(AAX−AAY)×100 [Equation 3]
AAX: a-wave amplitude in normal (untreated) group AAY: a-wave amplitude in group with light exposure and vehicle administration AAZ: a-wave amplitude in group with light exposure and drug administration
Suppression rate against photoreceptor cell damage (%) based on b-wave=(ABZ−ABY)/(ABX−ABY)×100 [Equation 4]
ABX: b-wave amplitude in normal (untreated) group ABY: b-wave amplitude in group with light exposure and vehicle administration ABZ: b-wave amplitude in group with light exposure and drug administration

[2] = tested on: thrombin-induced retinal vascular hyperpermeability
Description: A rat was given general anesthesia by intramuscular administration of 1 ml/kg of a mixed solution of a 5% (w/v) ketamine hydrochloride injectable solution and a 2% xylazine hydrochloride injectable solution (7:1), and a 0.5% (w/v) tropicamide-0.5% phenylephrine hydrochloride ophthalmic solution was instilled into the eyes to cause mydriasis. Then, 5 μl of thrombin (600 U/mL) was injected into the vitreous body using a 33-gauge needle so as not to hurt the lens and retina. To a rat in a normal group, PBS (phosphate buffer) was injected instead of thrombin.
In a vehicle administration group, a 1% (w/v) methyl cellulose solution was administered in the same manner.
At 24 hours after intravitreal injection of thrombin, each rat was killed by exsanguination, and then, the eyeball of the rat was enucleated while avoiding contamination with blood. […] The collected vitreous body was appropriately diluted with purified water and the protein concentration was determined by the Bradford method. The thus determined protein concentration in the vitreous body was used as an index of retinal vascular permeability. Then, the suppression rate (%) of the drug to be evaluated against the retinal vascular hyperpermeability induced by thrombin was calculated in accordance with Equation 5. […]

[3] = tested on: laser-induced choroidal neovascularization; test: rat models of krypton laser-induced choroidal neovascularization; assay type: in vivo; details: for inhibitory effect on neovascularization in the choroid (in words): rat models of laser-induced choroidal neovascularization, summary of Table 1; for Suppression rate (%) (inhibition rate of choroidal neovascularization incidence): rat, day 7 after photocoagulation, vs vehicle
Description: The photocoagulation was performed in a posterior fundus at eight spots per eye sparsely by focusing on the retinal deep layer avoiding thick retinal blood vessels (coagulation conditions: spot size: 100 μm, output: 100 mW, coagulation time: 0.1 sec). After the photocoagulation, the ocular fundus was photographed, and the site where the laser was irradiated was confirmed.
Each of the solutions of Compound A at such concentrations was orally administered once daily at a dose of 0.3 mg/kg or 1 mg/kg starting from the day of photocoagulation surgery for 7 days including the day of surgery. […] Each of the solutions of Compound B at such concentrations was orally administered once daily at a dose of 0.3 mg/kg or 1 mg/kg starting from the day of photocoagulation surgery for 7 days including the day of surgery. On the other hand, Compound C was dissolved in PBS (phosphate buffer) at a concentration of 100 mg/ml, and the resulting solution of Compound C was intraperitoneally administered once daily at a dose of 100 mg/kg starting from the day of photocoagulation surgery for […] the day of surgery.
In the fluorescence fundus photography, a spot where fluorescence leakage was not observed (absence of neovascularization) was judged as negative, and a spot where fluorescence leakage was observed was judged as positive (presence of neovascularization). When there are two photocoagulation sites where a little fluorescence leakage was observed, they were judged as positive (presence of neovascularization). […] The case number in each administration group is 7 to 8.
Choroidal neovascularization incidence rate (%)=(Number of positive spots/total number of photocoagulation sites)×100 [Equation 1]
Inhibition rate (%)=(A0−Ax)/A0×100 [Equation 2]
A0: Choroidal neovascularization incidence rate of vehicle administration group Ax: Choroidal neovascularization incidence rate of drug administration group

[4] = 0.3 mg/kg orally once daily for 7 days
[5] = 1 mg/kg orally once daily for 7 days

Row | SMILES | suppressive effect on photoreceptor cell damage (in words) [1] | Suppression rate (%) based on a-wave ([1]; 0.03 mg/kg orally once) | Suppression rate (%) based on b-wave ([1]; 0.03 mg/kg orally once) | Suppression rate (%) based on a-wave ([1]; 0.1 mg/kg orally once) | Suppression rate (%) based on b-wave ([1]; 0.1 mg/kg orally once) | Suppression rate (%) based on a-wave ([1]; 0.3 mg/kg orally once) | Suppression rate (%) based on b-wave ([1]; 0.3 mg/kg orally once) | Suppression rate (%) based on a-wave ([1]; 1 mg/kg orally once) | Suppression rate (%) based on b-wave ([1]; 1 mg/kg orally once) | suppressive effect on retinal vascular hyperpermeability (in words) ([2]; rat models of thrombin-induced retinal vascular hyperpermeability, summary of Table 3) | Suppression rate (%) against retinal vascular permeability ([2]; rat, 1 mg/kg orally immediately before and 20 hours after intravitreal thrombin, vitreous protein at 24 hours) | inhibitory effect on neovascularization in the choroid (in words) [3] | Suppression rate (%) (inhibition rate of choroidal neovascularization incidence) [3, 4] | Suppression rate (%) (inhibition rate of choroidal neovascularization incidence) [3, 5] | Suppression rate (%) (inhibition rate of choroidal neovascularization incidence) ([3]; 100 mg/kg intraperitoneally once daily)
1 | CCCN[C@H]1CCc2nc(N)sc2C1 [Compound A, pramipexole hydrochloride] | significantly suppresses photoreceptor cell damage | 41.4% | 49.2% | 47.3% | 44.1% | 70.0% | 72.1% | 102.0% | 92.1% | excellent suppressive effect on retinal vascular hyperpermeability | 9.9% | inhibits choroidal neovascularization | 60.9% | 60.9% | –
2 | CC(C)C[C@H]1C(=O)N2CCC[C@H]2[C@]2(O)O[C@](NC(=O)[C@@H]3C=C4c5cccc6[nH]c(Br)c(c56)C[C@H]4N(C)C3)(C(C)C)C(=O)N12 [Compound B, bromocriptine mesilate] | hardly or not at all observed | – | – | 0.2% | −3.8% | – | – | 4.8% | 4.9% | – | – | hardly or not at all observed | −2.1% | 4.1% | –
3 | Cl.NCCc1ccc(O)c(O)c1 [Compound C, dopamine hydrochloride] | – | – | – | – | – | – | – | – | – | – | – | hardly or not at all observed | – | – | 11.8%
